Laboratory results reported in ChEMBL document CHEMBL1201862, “PubChem BioAssay data set” (2004).
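Tested at 5 concentrations; 48 h exposure; 96-well plates; endpoints linearly interpolated, else capped at highest concentration. At the GI50, growth is halved.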 Calls of active or inactive are those of the source. Rule as the data show it: active = GI50 up to about 1.1 µM and inactive = higher.

Key:
Assay in all cases: NCI anticancer screen, dose series, 48 h
ACHN = system: ACHN
CAKI-1 = system: CAKI-1
HCT-15 = system: HCT-15
K562 = system: K562
LOX IMVI = system: LOX IMVI
MCF7 = system: MCF7
Malme-3M = system: Malme-3M
NCI-H226 = system: NCI-H226
OVCAR-3 = system: OVCAR-3
OVCAR-4 = system: OVCAR-4
OVCAR-5 = system: OVCAR-5
RXF 393 = system: RXF 393
SF-539 = system: SF-539
SNB-75 = system: SNB-75
SW-620 = system: SW-620
UACC-62 = system: UACC-62
UO-31 = system: UO-31
NCI-H23 = system: NCI-H23
RPMI-8226 = system: RPMI-8226
U-251 = system: U-251

Structure (SMILES) | GI50 (ACHN) | GI50 (CAKI-1) | GI50 (HCT-15) [µM] | GI50 (K562) | GI50 (LOX IMVI) | GI50 (MCF7) | GI50 (Malme-3M) | GI50 (NCI-H226) | GI50 (OVCAR-3) | GI50 (OVCAR-4) | GI50 (OVCAR-5) | GI50 (RXF 393) | GI50 (SF-539) | GI50 (SNB-75) | GI50 (SW-620) | GI50 (UACC-62) | GI50 (UO-31) | GI50 (NCI-H23) | GI50 (RPMI-8226) | GI50 (U-251)
CC(C)=CCC\C(C)=C/C=C/C(C)=C\C=C\C(C)=C/C=C/C=C(C)\C=C\C=C(C)/C=C/C=C(/C)CCC=C(C)C | > 100 µM (inactive) | > 100 µM (inactive) | > 100 | > 100 µM (inactive) | > 100 µM (inactive) | > 100 µM (inactive) | > 100 µM (inactive) | > 100 µM (inactive) | > 100 µM (inactive) | > 100 µM (inactive) | > 100 µM (inactive) | > 100 µM (inactive) | > 100 µM (inactive) | > 100 µM (inactive) | > 100 µM (inactive) | > 100 µM (inactive) | > 100 µM (inactive) | – | – | –
COc1ccc2c(c1)C(=O)c1ccccc1C2 | > 100 µM (inactive) | 79.6 µM (inactive) | 60.7 | 40.3 µM (inactive) | 49.9 µM (inactive) | 64 µM (inactive) | – | > 100 µM (inactive) | 82.2 µM (inactive) | 42.7 µM (inactive) | > 100 µM (inactive) | 13.5 µM (inactive) | 61.1 µM (inactive) | 26.5 µM (inactive) | 71.4 µM (inactive) | 51.8 µM (inactive) | > 100 µM (inactive) | 96.4 µM (inactive) | 46.8 µM (inactive) | 45.2 µM (inactive)
C=C1C[C@]23CC[C@@H]4C(CO)(CO)CC(=O)C[C@]4(C)[C@@H]2C(O)C[C@H]1C3 (some centres not stated) | > 100 µM (inactive) | > 100 µM (inactive) | > 100 | > 100 µM (inactive) | > 100 µM (inactive) | > 100 µM (inactive) | > 100 µM (inactive) | > 100 µM (inactive) | > 100 µM (inactive) | > 100 µM (inactive) | > 100 µM (inactive) | – | > 100 µM (inactive) | > 100 µM (inactive) | > 100 µM (inactive) | > 100 µM (inactive) | > 100 µM (inactive) | > 100 µM (inactive) | > 100 µM (inactive) | > 100 µM (inactive)
CCOC(=O)c1cc(-c2ccc(OC)cc2)c([N+](=O)[O-])[nH]1 | > 10 µM (inactive) | > 10 µM (inactive) | > 10 | 1.95 µM (inactive) | – | > 10 µM (inactive) | > 10 µM (inactive) | > 9.08 µM (inactive) | > 10 µM (inactive) | > 10 µM (inactive) | > 10 µM (inactive) | > 10 µM (inactive) | > 10 µM (inactive) | > 10 µM (inactive) | > 10 µM (inactive) | 7.78 µM (inactive) | > 10 µM (inactive) | > 10 µM (inactive) | – | > 10 µM (inactive)
Cc1ccc(S(=O)(=O)NC(=O)NCC(N)=O)cc1 | > 100 µM (inactive) | – | > 100 | > 100 µM (inactive) | > 100 µM (inactive) | > 100 µM (inactive) | > 100 µM (inactive) | – | – | > 100 µM (inactive) | > 100 µM (inactive) | > 100 µM (inactive) | > 100 µM (inactive) | > 100 µM (inactive) | > 100 µM (inactive) | > 100 µM (inactive) | > 100 µM (inactive) | > 100 µM (inactive) | > 100 µM (inactive) | > 100 µM (inactive)
COc1cc(/C=C/C(=O)OC2C(O)C3CC(OC(=O)c4cc(OC)c(OC)c(OC)c4)CC2N3C)cc(OC)c1OC (configuration not stated) | 21.9 µM (inactive) | 27 µM (inactive) | 28.1 | > 50 µM (inactive) | 15.3 µM (inactive) | 23 µM (inactive) | – | 12.1 µM (inactive) | 8.02 µM (inactive) | > 50 µM (inactive) | > 50 µM (inactive) | 15.9 µM (inactive) | 21.4 µM (inactive) | 8.73 µM (inactive) | 16 µM (inactive) | > 50 µM (inactive) | 10.4 µM (inactive) | > 50 µM (inactive) | 33 µM (inactive) | 40.5 µM (inactive)
Cc1ccc([S+]([O-])c2cccs2)cc1 (configuration not stated) | > 100 µM (inactive) | – | > 100 | > 100 µM (inactive) | – | > 100 µM (inactive) | > 100 µM (inactive) | > 100 µM (inactive) | > 100 µM (inactive) | – | > 100 µM (inactive) | > 100 µM (inactive) | > 100 µM (inactive) | – | > 100 µM (inactive) | – | > 100 µM (inactive) | > 100 µM (inactive) | > 100 µM (inactive) | > 100 µM (inactive)
O=c1[nH]ncc2[nH]c3c4ccccc4ccc3c12 | 27.9 µM (inactive) | 48.2 µM (inactive) | 12.4 | 45.7 µM (inactive) | 25.4 µM (inactive) | 18.4 µM (inactive) | 19.6 µM (inactive) | – | 29.6 µM (inactive) | 44.5 µM (inactive) | 39.9 µM (inactive) | 46.2 µM (inactive) | 50.1 µM (inactive) | – | 41.3 µM (inactive) | – | 25.5 µM (inactive) | – | 38.5 µM (inactive) | 24.8 µM (inactive)
O=C(c1cccs1)N1CCCN(C(=O)c2cccs2)C1=S | > 100 µM (inactive) | > 100 µM (inactive) | > 100 | > 100 µM (inactive) | > 100 µM (inactive) | > 100 µM (inactive) | > 100 µM (inactive) | > 100 µM (inactive) | > 100 µM (inactive) | – | > 100 µM (inactive) | 36.1 µM (inactive) | > 100 µM (inactive) | – | > 100 µM (inactive) | > 100 µM (inactive) | > 100 µM (inactive) | > 100 µM (inactive) | > 100 µM (inactive) | > 100 µM (inactive)
CC(C)C(=O)[C@@]1(C)SC[C@H]2CCN=C21 | > 100 µM (inactive) | 17 µM (inactive) | > 100 | > 100 µM (inactive) | > 100 µM (inactive) | > 100 µM (inactive) | 46.7 µM (inactive) | > 100 µM (inactive) | > 100 µM (inactive) | 74.6 µM (inactive) | > 100 µM (inactive) | 3.52 µM (inactive) | > 100 µM (inactive) | – | > 100 µM (inactive) | 41.4 µM (inactive) | 58.6 µM (inactive) | > 100 µM (inactive) | > 100 µM (inactive) | –
Cc1ccc(S(=O)(=O)NC(=O)NC2=NC(C)(C)N(c3ccc(Cl)c(Cl)c3)C(N)=N2)cc1 | 11.1 µM (inactive) | 49.5 µM (inactive) | 61.2 | 1.94 µM (inactive) | – | 25.8 µM (inactive) | 4.01 µM (inactive) | 67.8 µM (inactive) | > 100 µM (inactive) | > 100 µM (inactive) | > 100 µM (inactive) | 66.7 µM (inactive) | 29.2 µM (inactive) | 31.6 µM (inactive) | 4.66 µM (inactive) | 7.59 µM (inactive) | > 100 µM (inactive) | 11.4 µM (inactive) | – | 5.68 µM (inactive)
COc1cccc2c(NNc3ccccc3)c3ccc([N+](=O)[O-])cc3nc12 | 20.2 µM (inactive) | 12 µM (inactive) | 33 | 83.4 µM (inactive) | 13.6 µM (inactive) | 26.4 µM (inactive) | 54.3 µM (inactive) | 24.9 µM (inactive) | 50.2 µM (inactive) | 42 µM (inactive) | > 100 µM (inactive) | 48.9 µM (inactive) | 36.4 µM (inactive) | – | 24.9 µM (inactive) | 6.41 µM (inactive) | 8.67 µM (inactive) | 20.5 µM (inactive) | 7.1 µM (inactive) | 21.2 µM (inactive)
Cn1cc(-c2ccc(CCOC3CCCCO3)cc2)c2c(C#N)cccc21 (configuration not stated) | – | > 100 µM (inactive) | 16.6 | 22.9 µM (inactive) | 41.9 µM (inactive) | 38.3 µM (inactive) | 83 µM (inactive) | – | 67.8 µM (inactive) | 31.8 µM (inactive) | > 100 µM (inactive) | 45.3 µM (inactive) | 55 µM (inactive) | – | 28.5 µM (inactive) | 44.6 µM (inactive) | 28 µM (inactive) | 48.3 µM (inactive) | 41.9 µM (inactive) | 28.6 µM (inactive)
CCOC(=O)c1sc2nc(SC)nc(Nc3ccc(OC)c(OC)c3)c2c1N | 13.2 µM (inactive) | 89.9 µM (inactive) | > 100 | > 100 µM (inactive) | > 100 µM (inactive) | 3.95 µM (inactive) | 23.2 µM (inactive) | 7.94 µM (inactive) | 9.35 µM (inactive) | 6.65 µM (inactive) | > 100 µM (inactive) | 3.33 µM (inactive) | 1.58 µM (inactive) | – | 7 µM (inactive) | 4.74 µM (inactive) | 22.4 µM (inactive) | 3.52 µM (inactive) | 1.84 µM (inactive) | 3.03 µM (inactive)
COC(=O)/C=C1\CCC(C)(C(=O)NS(=O)(=O)c2ccc(C)cc2)C1(C)C (configuration not stated) | > 100 µM (inactive) | > 100 µM (inactive) | > 100 | > 100 µM (inactive) | > 100 µM (inactive) | > 100 µM (inactive) | > 100 µM (inactive) | > 100 µM (inactive) | > 100 µM (inactive) | > 100 µM (inactive) | > 100 µM (inactive) | > 100 µM (inactive) | > 100 µM (inactive) | – | > 100 µM (inactive) | > 100 µM (inactive) | > 100 µM (inactive) | > 100 µM (inactive) | > 100 µM (inactive) | > 100 µM (inactive)
CCC1c2[nH]c3ccccc3c2C[C@H]2C(=O)NC(COC(C)(C)C)C(=O)N12 (some centres not stated) | 42 µM (inactive) | 44.9 µM (inactive) | 48 | 39.4 µM (inactive) | 37.3 µM (inactive) | 41.8 µM (inactive) | 21.7 µM (inactive) | > 100 µM (inactive) | 32 µM (inactive) | 39.1 µM (inactive) | 47.3 µM (inactive) | 55.5 µM (inactive) | – | 19.8 µM (inactive) | 69 µM (inactive) | 53.3 µM (inactive) | 38.2 µM (inactive) | 32.9 µM (inactive) | 32.4 µM (inactive) | 40.7 µM (inactive)
